In patent publication US12448375B2, “Kinase inhibitors for the treatment of neurodegenerative diseases” (Ohio State Innovation Foundation, priority 2019, dated 2025):

Assays:
Assay type in all cases: biochemical
Details in all cases: HotSpot radiometric assay, 33P-ATP
JNK3 = molecular target: T1, JNK3 (Homo sapiens, UniProt P53779); test: HotSpot Kinase Assay (Reaction Biology Corp.), anti-JNK3 activity
T1 construct: purchased Reaction Biology Corp
Method: (§1) The anti-JNK3 activity of compounds prepared as in the previous examples was evaluated using a Reaction Biology Corp. HotSpot Kinase Assay. Base reaction buffer was 20 mM HEPES (4-(2-hydroxyethyl)-1-piperazineethanesulfonic acid) at pH 7.5 with 10 mM MgCl2, 1 mM EGTA (ethylene glycol-bis(β-aminoethyl ether)-N,N,N′,N′-tetracetic acid), 0.02% Brij™ 35, 0.02 mg/mL BSA (bovine serum albumin), 0.1 mM Na3VO4, 2 mM DTT (dithiothreitol), and 1% DMSO. Required cofactors were added individually to each kinase reaction.
(§2) Activity against related enzymes JNK1 and P38a was further assessed using the same assay.

JNK1 = molecular target: T2, JNK1 (Homo sapiens, UniProt P45983); test: HotSpot Kinase Assay, JNK1
T2 construct: purchased Reaction Biology Corp
Method: as §1, §2

p38a = molecular target: T3, p38a (Homo sapiens, UniProt Q16539); test: HotSpot Kinase Assay, P38a
T3 construct: purchased Reaction Biology Corp
Method: as §1, §2

T2 sequence (P45983 whole entry): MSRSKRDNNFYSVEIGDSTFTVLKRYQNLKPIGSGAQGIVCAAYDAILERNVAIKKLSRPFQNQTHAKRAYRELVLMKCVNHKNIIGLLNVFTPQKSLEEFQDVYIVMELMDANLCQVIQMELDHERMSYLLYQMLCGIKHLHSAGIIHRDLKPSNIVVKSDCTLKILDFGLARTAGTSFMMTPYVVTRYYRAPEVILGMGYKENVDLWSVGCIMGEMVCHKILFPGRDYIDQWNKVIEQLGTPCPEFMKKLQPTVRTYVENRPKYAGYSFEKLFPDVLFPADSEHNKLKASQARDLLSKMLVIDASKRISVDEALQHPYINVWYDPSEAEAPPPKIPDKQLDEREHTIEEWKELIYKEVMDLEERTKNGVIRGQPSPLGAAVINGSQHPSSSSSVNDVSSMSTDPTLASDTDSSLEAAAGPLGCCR
T1 sequence (P53779 whole entry): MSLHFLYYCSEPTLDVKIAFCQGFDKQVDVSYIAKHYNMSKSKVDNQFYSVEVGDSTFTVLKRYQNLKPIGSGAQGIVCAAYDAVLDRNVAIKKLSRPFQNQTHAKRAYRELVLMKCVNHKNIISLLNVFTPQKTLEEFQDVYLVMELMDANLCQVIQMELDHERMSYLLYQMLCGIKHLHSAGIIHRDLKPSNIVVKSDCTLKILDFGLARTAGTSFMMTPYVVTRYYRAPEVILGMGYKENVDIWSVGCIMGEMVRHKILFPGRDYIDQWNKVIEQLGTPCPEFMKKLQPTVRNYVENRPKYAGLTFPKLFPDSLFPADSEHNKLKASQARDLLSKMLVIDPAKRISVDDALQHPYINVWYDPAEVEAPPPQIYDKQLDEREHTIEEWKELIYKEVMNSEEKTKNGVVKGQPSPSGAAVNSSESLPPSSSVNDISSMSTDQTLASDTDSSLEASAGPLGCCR
T3 sequence (Q16539 whole entry): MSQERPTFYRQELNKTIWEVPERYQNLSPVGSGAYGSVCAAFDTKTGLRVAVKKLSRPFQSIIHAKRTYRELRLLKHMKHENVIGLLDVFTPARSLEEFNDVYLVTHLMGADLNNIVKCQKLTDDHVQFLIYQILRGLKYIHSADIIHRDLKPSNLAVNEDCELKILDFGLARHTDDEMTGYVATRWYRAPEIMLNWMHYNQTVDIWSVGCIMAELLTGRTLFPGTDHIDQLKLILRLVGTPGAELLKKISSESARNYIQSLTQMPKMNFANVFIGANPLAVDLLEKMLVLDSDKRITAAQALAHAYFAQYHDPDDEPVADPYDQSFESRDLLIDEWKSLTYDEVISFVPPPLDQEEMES

Row | SMILES | IC50 (JNK3) | IC50 (JNK1) | IC50 (p38a)
1 | O=C(N[C@H]1CCOC1)c1cc(-n2ncc3cc(Nc4ccccc4Cl)c(F)cc32)cs1 [Compound 32, (S)-4-(5-((2-chlorophenyl)amino)-6-fluoro-1H-indazol-1-yl)-N-(tetrahydrofuran-3-yl)thiophene-2-carboxamide] | < 200 nM | < 200 nM | < 200 nM
2 | O=C(NC1COC1)c1cc(-n2ncc3cc(Nc4ccccc4Cl)c(F)cc32)cs1 [Compound 34, 4-(5-((2-chlorophenyl)amino)-6-fluoro-1H-indazol-1-yl)-N-(oxetan-3-yl)thiophene-2-carboxamide] | < 200 nM | > 1000 nM | 200 to 1000 nM
3 | CC(C)N1CC[C@@H](NC(=O)c2cc(-n3ncc4cc(Nc5ccccc5Cl)ccc43)cs2)C1 [Compound 35, (R)-4-(5-((2-chlorophenyl)amino)-1H-indazol-1-yl)-N-(1-isopropylpyrrolidin-3-yl)thiophene-2-carboxamide] | < 200 nM | 200 to 1000 nM | 200 to 1000 nM
4 | COCCNC(=O)c1cc(-n2ncc3cc(Nc4ccccc4Cl)c(F)cc32)cs1 [Compound 37, 4-(5-((2-chlorophenyl)amino)-6-fluoro-1H-indazol-1-yl)-N-(2-methoxyethyl)thiophene-2-carboxamide] | < 200 nM | < 200 nM | < 200 nM
5 | O=C(NC1CCOCC1)c1cc(-n2ncc3cc(Nc4ccccc4Cl)c(F)cc32)cs1 [Compound 38, 4-(5-((2-chlorophenyl)amino)-6-fluoro-1H-indazol-1-yl)-N-(tetrahydro-2H-pyran-4-yl)thiophene-2-carboxamide] | < 200 nM | < 200 nM | < 200 nM
6 | O=C(NCC(F)F)c1cc(-n2ncc3cc(Nc4ccccc4Cl)c(F)cc32)cs1 [Compound 39, 4-(5-((2-chlorophenyl)amino)-6-fluoro-1H-indazol-1-yl)-N-(2,2-difluoroethyl)thiophene-2-carboxamide] | < 200 nM | < 200 nM | < 200 nM
7 | CC(=O)N1CC[C@H](NC(=O)c2cc(-n3ncc4cc(Nc5ccccc5Cl)c(F)cc43)cs2)C1 [Compound 40, (S)—N-(1-acetylpyrrolidin-3-yl)-4-(5-((2-chlorophenyl)amino)-6-fluoro-1H-indazol-1-yl)thiophene-2-carboxamide] | < 200 nM | 200 to 1000 nM | < 200 nM
8 | CC(C)NC(=O)c1cc(-n2ncc3cc(Nc4ccccc4Cl)c(F)cc32)cs1 [Compound 44, 4-(5-((2-chlorophenyl)amino)-6-fluoro-1H-indazol-1-yl)-N-isopropylthiophene-2-carboxamide] | < 200 nM | < 200 nM | < 200 nM
9 | CC(C)NC(=O)c1cc(-n2ncc3nc(Oc4ccccc4Cl)ncc32)cs1 [Compound 47, 4-(5-(2-chlorophenoxy)-1H-pyrazolo[4,3-d]pyrimidin-1-yl)-N-isopropylthiophene-2-carboxamide] | > 1000 nM | > 1000 nM | > 1000 nM
10 | COCC(COC)NC(=O)c1cc(-n2ncc3nc(Oc4ccccc4Cl)ccc32)cs1 [Compound 48, 4-(5-(2-chlorophenoxy)-1H-pyrazolo[4,3-b]pyridin-1-yl)-N-(1,3-dimethoxypropan-2-yl)thiophene-2-carboxamide] | > 1000 nM | > 1000 nM | > 1000 nM
11 | CNC(=O)c1cc(-n2ncc3nc(Oc4ccccc4Cl)ccc32)cs1 [Compound 49, 4-(5-(2-chlorophenoxy)-1H-pyrazolo[4,3-b]pyridin-1-yl)-N-methylthiophene-2-carboxamide] | 200 to 1000 nM | > 1000 nM | 200 to 1000 nM
12 | O=C(NC1COC1)c1cc(-n2ncc3nc(Nc4ccccc4Cl)ccc32)cs1 [Compound 52, 4-(5-((2-chlorophenyl)amino)-1H-pyrazolo[4,3-b]pyridin-1-yl)-N-(oxetan-3-yl)thiophene-2-carboxamide] | < 200 nM | > 1000 nM | 200 to 1000 nM
13 | O=C(NC(CO)CO)c1cc(-n2ncc3nc(Nc4ccccc4Cl)ccc32)cs1 [Compound 53, 4-(5-((2-chlorophenyl)amino)-1H-pyrazolo[4,3-b]pyridin-1-yl)-N-(1,3-dihydroxypropan-2-yl)thiophene-2-carboxamide] | < 200 nM | > 1000 nM | > 1000 nM
14 | CC(C)NC(=O)c1cc(-n2ncc3nc(Nc4ccccc4Cl)ccc32)cs1 [Compound 54, 4-(5-((2-chlorophenyl)amino)-1H-pyrazolo[4,3-b]pyridin-1-yl)-N-isopropylthiophene-2-carboxamide] | < 200 nM | 200 to 1000 nM | 200 to 1000 nM
15 | COCCNC(=O)c1cc(-n2ncc3nc(Nc4ccccc4Cl)ccc32)cs1 [Compound 55, 4-(5-((2-chlorophenyl)amino)-1H-pyrazolo[4,3-b]pyridin-1-yl)-N-(2-methoxyethyl)thiophene-2-carboxamide] | < 200 nM | > 1000 nM | 200 to 1000 nM
16 | COCCNC(=O)c1cc(-n2ncc3nc(Oc4ccccc4Cl)ccc32)cs1 [Compound 56, 4-(5-(2-chlorophenoxy)-1H-pyrazolo[4,3-b]pyridin-1-yl)-N-(2-methoxyethyl)thiophene-2-carboxamide] | < 200 nM | 200 to 1000 nM | 200 to 1000 nM
17 | CNC(=O)c1cc(-n2ncc3cc(Oc4ccccc4Cl)cnc32)cs1 [Compound 64, 4-(5-(2-chlorophenoxy)-1H-pyrazolo[3,4-b]pyridin-1-yl)-N-methylthiophene-2-carboxamide] | < 200 nM | 200 to 1000 nM | 200 to 1000 nM
18 | CNC(=O)c1cc(-n2ncc3cc(Nc4ccccc4Cl)cnc32)c(C)s1 [Compound 65, 4-(5-((2-chlorophenyl)amino)-1H-pyrazolo[3,4-b]pyridin-1-yl)-N,5-dimethylthiophene-2-carboxamide] | < 200 nM | 200 to 1000 nM | < 200 nM
19 | Cc1sc(C(=O)NC2COC2)cc1-n1ncc2cc(Nc3ccccc3Cl)cnc21 [Compound 68, 4-(5-((2-chlorophenyl)amino)-1H-pyrazolo[3,4-b]pyridin-1-yl)-5-methyl-N-(oxetan-3-yl)thiophene-2-carboxamide] | < 200 nM | 200 to 1000 nM | > 1000 nM
20 | CC1COC(NC(=O)c2cc(-n3ncc4cc(Nc5ccccc5Cl)cnc43)cs2)=N1 (stereo not drawn) [Compound 69, 4-(5-((2-chlorophenyl)amino)-1H-pyrazolo[3,4-b]pyridin-1-yl)-N-(4-methyl-4,5-dihydrooxazol-2-yl)thiophene-2-carboxamide] | < 200 nM | 200 to 1000 nM | 200 to 1000 nM
21 | O=C(NC1COC1)c1cc(-n2ncc3cc(Oc4ccccc4Cl)cnc32)cs1 [Compound 70, 4-(5-(2-chlorophenoxy)-1H-pyrazolo[3,4-b]pyridin-1-yl)-N-(oxetan-3-yl)thiophene-2-carboxamide] | < 200 nM | > 1000 nM | > 1000 nM
22 | CC(=O)N1CC(NC(=O)c2cc(-n3ncc4cc(Nc5ccccc5Cl)cnc43)cs2)C1 [Compound 71, N-(1-acetylazetidin-3-yl)-4-(5-((2-chlorophenyl)amino)-1H-pyrazolo[3,4-b]pyridin-1-yl)thiophene-2-carboxamide] | < 200 nM | 200 to 1000 nM | < 200 nM
23 | O=C(NCCCF)c1cc(-n2ncc3cc(Oc4ccccc4Cl)cnc32)cs1 [Compound 72, 4-(5-(2-chlorophenoxy)-1H-pyrazolo[3,4-b]pyridin-1-yl)-N-(3-fluoropropyl)thiophene-2-carboxamide] | < 200 nM | 200 to 1000 nM | 200 to 1000 nM
24 | CNC(=O)c1cc(-n2ncc3cc(N(C)c4ccccc4OC)c(F)cc32)cs1 [Compound 75, 4-(6-fluoro-5-((2-methoxyphenyl)(methyl)amino)-1H-indazol-1-yl)-N-methylthiophene-2-carboxamide] | < 200 nM | 200 to 1000 nM | 200 to 1000 nM
25 | CNC(=O)c1cc(-n2ncc3cc(Nc4ccccc4Cl)c(C)nc32)cs1 [Compound 76, 4-(5-((2-chlorophenyl)amino)-6-methyl-1H-pyrazolo[3,4-b]pyridin-1-yl)-N-methylthiophene-2-carboxamide] | < 200 nM | 200 to 1000 nM | 200 to 1000 nM
26 | COc1ccccc1Nc1cc2cnn(-c3csc(C(=O)NC4COC4)c3)c2cc1F [Compound 77, 4-(6-fluoro-5-((2-methoxyphenyl)amino)-1H-indazol-1-yl)-N-(oxetan-3-yl)thiophene-2-carboxamide] | < 200 nM | > 1000 nM | < 200 nM
27 | COc1cc2c(cnn2-c2csc(C(=O)NC3COC3)c2)cc1Nc1ccccc1Cl [Compound 78, 4-(5-((2-chlorophenyl)amino)-6-methoxy-1H-indazol-1-yl)-N-(oxetan-3-yl)thiophene-2-carboxamide] | < 200 nM | > 1000 nM | > 1000 nM
28 | Cc1nc2c(cnn2-c2csc(C(=O)NC3(C)COC3)c2)cc1Nc1ccccc1Cl [Compound 79, 4-(5-((2-chlorophenyl)amino)-6-methyl-1H-pyrazolo[3,4-b]pyridin-1-yl)-N-(3-methyloxetan-3-yl)thiophene-2-carboxamide] | 200 to 1000 nM | > 1000 nM | > 1000 nM
29 | CNC(=O)c1cc(-n2ncc3cc(Nc4ccccc4OC)c(F)cc32)cs1 [Compound 80, 4-(6-fluoro-5-((2-methoxyphenyl)amino)-1H-indazol-1-yl)-N-methylthiophene-2-carboxamide] | < 200 nM | > 1000 nM | 200 to 1000 nM
